Results reported in ChEMBL document CHEMBL4152347 (J Med Chem, 2018).
pEC50, pKd: −log10 of the molar value.

Tests used:
[1] = Protein binding in cynomolgus monkey serum at 53 nM after 1 hr by ultracentrifugation assay; type: ADME, cell-free, Macaca fascicularis; details: read-out: PB (converted)
[2] = Cmax in CD1 mouse at 5 mg/kg, po administered via gavage; type: ADME, organism-based; parameters: dose 5 mg/kg, route oral; details: in vivo
[3] = AUC (0 to infinity) in CD1 mouse at 1 mg/kg, iv; type: ADME, organism-based; parameters: dose 1 mg/kg, route intravenous, time infinity; details: in vivo
[4] = AUC (0 to infinity) in CD1 mouse at 5 mg/kg, po administered via gavage; type: ADME, organism-based; parameters: dose 5 mg/kg, time infinity, route oral; details: in vivo
[5] = Total plasma clearance in CD1 mouse at 1 mg/kg, iv; type: ADME, organism-based
[6] = Volume of distribution at steady state in CD1 mouse at 1 mg/kg, iv; type: ADME, organism-based; details: in vivo, read-out: Vdss
[7] = Cmax in Sprague-Dawley rat at 5 mg/kg, po; type: ADME, organism-based; parameters: dose 5 mg/kg, route oral; details: in vivo
[8] = Cmax in Sprague-Dawley rat at 5 mg/kg, id; type: ADME, organism-based; parameters: dose 5 mg/kg; details: in vivo
[9] = Bioavailability in Sprague-Dawley rat at 5 mg/kg, id; type: ADME, organism-based; details: in vivo
[10] = AUC (0 to infinity) in Sprague-Dawley rat at 5 mg/kg, po treated with 10 mg/kg elacridar immediately after compound dosing; type: ADME, organism-based; parameters: dose 5 mg/kg, route oral, time infinity; details: in vivo, with elacridar 10 mg/kg
[11] = Tmax in beagle dog at 5 mg/kg, po administered via gavage as solution; type: ADME, organism-based, Canis lupus familiaris; details: in vivo
Canis familiaris [12] = test: Tmax in beagle dog at 1 mg/kg, iv; type: ADME, organism-based, Canis lupus familiaris; details: in vivo
Canis familiaris [13] = test: AUC (0 to infinity) in beagle dog at 1 mg/kg, iv; type: ADME, organism-based, Canis lupus familiaris; parameters: dose 1 mg/kg, route intravenous, time infinity; details: in vivo
[14] = Oral bioavailability in beagle dog at 5 mg/kg administered as solution; type: ADME, organism-based, Canis lupus familiaris; details: in vivo
[15] = Cmax in beagle dog at 5 mg/kg, po administered via gavage as microsuspension pre-treated with 6 ug/kg, im pentagastrin 15 to 30 mins before compound dosing; type: ADME, organism-based, Canis lupus familiaris; details: in vivo
[16] = Cmax in beagle dog at 5 mg/kg, po administered via gavage as microsuspension along with high fat meal; type: ADME, organism-based, Canis lupus familiaris; parameters: dose 5 mg/kg, route oral; details: in vivo
[17] = Tmax in beagle dog at 5 mg/kg, po administered via gavage as microsuspension along with high fat meal; type: ADME, organism-based, Canis lupus familiaris; details: in vivo
Canis familiaris [18] = test: AUC (0 to infinity) in beagle dog at 5 mg/kg, po administered via gavage as microsuspension along with high fat meal; type: ADME, organism-based, Canis lupus familiaris; parameters: dose 5 mg/kg, time infinity, route oral; details: in vivo
[19] = Oral bioavailability in beagle dog at 5 mg/kg administered via gavage as microsuspension pre-treated with 40 mg famotidine in capsule form 1 hr before compound dosing; type: ADME, organism-based, Canis lupus familiaris; details: in vivo
[20] = Cmax in cynomolgus monkey at 5 mg/kg, po administered via gavage; type: ADME, organism-based, Macaca fascicularis; parameters: dose 5 mg/kg, route oral; details: in vivo
[21] = Tmax in cynomolgus monkey at 5 mg/kg, po administered via gavage; type: ADME, organism-based, Macaca fascicularis; details: in vivo
[22] = AUC (0 to infinity) in cynomolgus monkey at 1 mg/kg, iv; type: ADME, organism-based, Macaca fascicularis; parameters: dose 1 mg/kg, time infinity, route intravenous; details: in vivo
[23] = Total plasma clearance in cynomolgus monkey at 1 mg/kg, iv; type: ADME, organism-based, Macaca fascicularis
[24] = Volume of distribution at steady state in cynomolgus monkey at 1 mg/kg, iv; type: ADME, organism-based, Macaca fascicularis; details: in vivo, read-out: Vdss
[25] = Oral bioavailability in cynomolgus monkey at 5 mg/kg administered via gavage; type: ADME, organism-based, Macaca fascicularis; details: in vivo
[26] = Half life in cynomolgus monkey liver microsomes at 0.5 uM after 1 hr in presence of NADPH by LC-MS/MS analysis; type: ADME, Macaca fascicularis, microsome
[27] = Half life in human hepatocytes at 0.5 uM after 1 hr in presence of NADPH by LC-MS/MS analysis; type: ADME, cell-based, Hepatocyte
Salmonella typhimurium [28] = test: Mutagenicity in Salmonella typhimurium TA98 in presence of Aroclor 1254-induced rat liver S9 fraction at up to 1600 ug/plate; type: toxicity, organism-based; details: salmonella enterica subsp. enterica serovar typhimurium
Salmonella typhimurium [29] = test: Mutagenicity in Salmonella typhimurium TA98 in absence of Aroclor 1254-induced rat liver S9 fraction at up to 1600 ug/plate; type: toxicity, organism-based; details: salmonella enterica subsp. enterica serovar typhimurium
Salmonella typhimurium [30] = test: Mutagenicity in Salmonella typhimurium TA100 in presence of Aroclor 1254-induced rat liver S9 fraction at up to 1600 ug/plate; type: toxicity, organism-based; details: salmonella enterica subsp. enterica serovar typhimurium
Salmonella typhimurium [31] = test: Mutagenicity in Salmonella typhimurium TA100 in absence of Aroclor 1254-induced rat liver S9 fraction at up to 1600 ug/plate; type: toxicity, organism-based; details: salmonella enterica subsp. enterica serovar typhimurium
Gag-Pol polyprotein = Gag-Pol polyprotein (Human immunodeficiency virus type 1 group M subtype B (isolate HXB2)(HIV-1), UniProt P04585, V362I)
in vivo = details: Sprague-Dawley, rat, po, 5 mg/kg
in vitro [32] = details: rat, liver microsomes
Description: Half life in rat liver microsomes at 0.5 uM after 1 hr in presence of NADPH by LC-MS/MS analysis

in vitro [33] = details: human, liver microsomes
Description: Half life in human liver microsomes at 0.5 uM after 1 hr in presence of NADPH by LC-MS/MS analysis

[34] = system: Human immunodeficiency virus 1; test: microbe, parasite or virus in culture
Description: Antiviral activity against HIV1 expressing gag A364V mutant

Compound `C=C(C)[C@@H]1CC[C@]2(NCCN3CCS(=O)(=O)CC3)CC[C@]3(C)[C@H](CC[C@@H]4[C@@]5(C)CC=C(c6ccc(C(=O)O)cc6)C(C)(C)[C@@H]5CC[C@]43C)[C@@H]12` [BMS-955176] has a fraction unbound at 1 h, 0.053 µM [1] of 0.216, a Cmax [2] of 2790 nM and an AUC(0-inf) [3] of 21.6 µM·h. It also gave an AUC(0-inf) [4] of 28.9 µM·h, a clearance [5] of 1.1 mL/min/kg and a Vd [6] of 0.82 L/kg. It also gave a Cmax [7] of 1200 nM, a Cmax [8] of 1700 nM and a bioavailability [9] of 36%. It also gave an AUC(0-inf) [10] of 47.4 µM·h, a Tmax [11] of 12.7 h and a Tmax (Canis familiaris [12]) of 187 h. It also gave an AUC (Canis familiaris [13]) of 31.7 µM·h, a bioavailability [14] of 9% and a Cmax [15] of 4430 nM. It also gave a Cmax [16] of 10200 nM, a Tmax [17] of 10.5 h and an AUC (Canis familiaris [18]) of 643 µM·h. The bioavailability [19] was 26%, the Cmax [20] was 62 nM and the Tmax [21] was 3.3 h. The AUC(0-inf) [22] was 13.6 µM·h, the clearance [23] was 1.9 mL/min/kg and the Vd [24] was 0.43 L/kg. The bioavailability [25] was 4%, the half-life at 0.5 µM [26] was 0.183 h and the half-life at 0.5 µM [27] was greater than 2 h. For the same compound, the Activity (Salmonella typhimurium [28]) was “Non-Toxic”, the Activity (Salmonella typhimurium [29]) was “Non-Toxic” and the Activity (Salmonella typhimurium [30]) was “Non-Toxic”. For the same compound, the Activity (Salmonella typhimurium [31]) was “Non-Toxic”, the pKd (Gag-Pol polyprotein) was 8.37 and the AUC(0-t) at 6 h (in vivo) was 4.13 µM·h. It also gave a half-life at 1 h, 0.5 µM (in vitro [32]) greater than 2 h, a half-life at 1 h, 0.5 µM (in vitro [33]) greater than 2 h and a pEC50 [34] of 5.83.
